According to patent US8530680B2, “System and method for controlling growth of microorganisms with brominated furanones” (Syracuse University, priority 2008, dated 2013):
Entries after “also recorded” stand apart in the source; their conditions may differ.

Tests used:
[1] = system: P. aeruginosa strain PAO1; test: Microplate based planktonic growth assay of P. aeruginosa; assay type: cell-based, Pseudomonas aeruginosa; settings: for reduction of specific growth rate compared to furanone-free control: planktonic growth
Description: The antimicrobial activities of furanones on the planktonic growth of P. aeruginosa strain PAO1 was examined using a microplate based growth assay. An overnight culture of the strain grown in LB medium at 30° C. was used to inoculate M63 minimal medium supplemented with furanones at 0, 30 or 60 μg/mL to an optical density at 600 nm (OD600) of 0.05 in 96-well plates. The plates were then incubated at 30° C. with shaking at 200 rpm. The reading of OD600 was measured every 60 minutes for six hours using a microplate reader (ELx808, BioTek Instruments). Six replicates were tested for every sample. The synthesis of the brominated furanones, the structures of which are shown in FIGS. 1A and 1B, was according to Example 1.

[2] = system: extracellular AI-2 activities of E. coli; test: AI-2 bioluminescence assay (V. harveyi BB170 reporter, E. coli supernatants); assay type: cell-based; settings: 60 μg/mL, E. coli culture 8 hours, supernatant on V. harveyi BB170
Description: To explore if brominated furanones have an interaction with quorum-sensing based on AI-2, a bioluminescence assay was conducted. Specifically, to examine whether the novel BFs have any inhibitory effects on universal QS signal AI-2, the bioluminescence of the reporter Vibrio harveyi (“V. harveyi”) strain BB170 was used as an indicator of AI-2 activities.
The E. coli strains RP437 [thr-1(Am) leuB6 his-4 metF159(Am) eda-50 rpsL1356 thi-1 ara-14 mtl-1 xyl-5 tonA31 tsx-78 lacY1 F-] and quorum-sensing mutant BW25113 ΔLuxS [ΔluxS::kan^r lacI^q rrnB3 ΔlacZ4787 hsdR514 Δ(araBAD)567 Δ (rhaBAD)568 rph-1] were routinely grown at 37° C. with shaking at 200 rpm in LB medium containing 10 g/L NaCl, 5 g/L yeast extract and 10 g/L tryptone. […]
The reporter strain V. harveyi BB170 was grown in AB medium at 30° C. for 16 hours. […] The subcultures were incubated at 30° C. and the bioluminescence was measured every hour as an indicator of AI-2 activity using a luminometer (Model 20/20m Turner BioSystems, Inc., Sunnyvale, Calif.). The colony-forming units (CFUs) of V. harveyi strain BB170 were counted after spreading the cell cultures on LM agar plates containing 10 g/L tryptone, 5 g/L yeast extract, 20 g/L NaCl and 15 g/L agar plates and incubating at 30° C. for 24 hours.
It was previously known that the V. harveyi BB170 strain produces luminescence in response to AI-2 but not in response to homoserine lactones (AHLs) as a result of a mutation in the AHL sensor gene. At low cell densities, the basal level of AI-2 will not trigger significant production of luminescence in V. harveyi BB170; however, at high cell densities, the extracellular AI-2 concentration will reach a certain threshold and induce the bioluminescence of V. harveyi. […]

[3] = system: Gloeophyllum trabeum strain GT599; test: Fungal growth on MEA plates with furanone; assay type: cell-based; set-up: key to growth on plate, GT599: −: No growth was observed; +: normal growth was seen; settings: for growth on plate, GT599: 60 μg/mL, 7 days at 30° C.; for growth inhibition test, inhibitory concentration, GT599: tested at 1, 5, 30, 60 μg/mL, 7 days
Description: (§1) This Example examines the effect of brominated furanones on the growth of fungi associated with damage to building material. Six fungal strains were the subject of these experiments; Gloeophyllum trabeum (strains GT598 and GT599), Chaetomium globosum (wildtype strain and CG572), and Trametes versicolor (strains TV7B2-59 and TV57MAD277). The species were developed on 2% Malt-Extract Agar (MEA) plates and stored inverted at 4° C. The stocks were refreshed by streaking new plates every two months.
(§2) The brominated and non-brominated furanones were added to MAE agar plates at different concentrations. The brominated furanones were dissolved in either ethanol (“EtOH”) or methanol (“MeOH”) as stock solutions, as shown in Table 5. The non-brominated furanones were purchased from Sigma (St. Louis, Mo.). The furanone stocks were stored at 4° C.
(§3) MAE agar plates containing the same amounts of ethanol/methanol were also prepared as negative controls to eliminate any solvent effects. The plates were prepared using either 90 mm or 60 mm petri dishes and were stored inverted at 4° C. until use.
(§4) Different concentrations of furanones were studied to compare their antifungal activities. The plates were inoculated with the six fungal strains using a platinum loop and were incubated upside down at 30° C. for 7 days to monitor the growth. The initial screening was performed using a single 60 μg/mL furanone concentration.

[4] = system: Chaetomium globosum wildtype strain (CG); test: Fungal growth on MEA plates with furanone; assay type: cell-based; set-up: key to growth on plate, CG: −: No growth was observed; +: normal growth was seen; settings: for growth on plate, CG: 60 μg/mL, 7 days at 30° C.; for growth inhibition test, inhibitory concentration, CG: tested at 1, 5, 30, 60 μg/mL, 7 days
Description: as §1, §2, §3, §4

[5] = system: Chaetomium globosum CG572; test: Fungal growth on MEA plates with furanone; assay type: cell-based; set-up: key to growth on plate, CG572: −: No growth was observed; +: normal growth was seen; settings: for growth on plate, CG572: 60 μg/mL, 7 days at 30° C.; for growth inhibition test, inhibitory concentration, CG572: tested at 1, 5, 30, 60 μg/mL, 7 days
Description: as §1, §2, §3, §4

[6] = system: Trametes versicolor strain TV57MAD277; test: Fungal growth on MEA plates with furanone; assay type: cell-based; set-up: key to growth on plate, TV57MAD277: −: No growth was observed; +: normal growth was seen; settings: for growth on plate, TV57MAD277: 60 μg/mL, 7 days at 30° C.; for growth inhibition test, inhibitory concentration, TV57MAD277: tested at 1, 5, 30, 60 μg/mL, 7 days
Description: as §1, §2, §3, §4

SMILES: O=C1OC(=C(Br)Br)C=C1C(Br)Br [BF10, 3-(dibromomethyl)-5-(dibromomethylene)furan-2-one]
- inhibitory effect on planktonic growth ([1]; 30 μg/mL): did not exhibit significant inhibitory effects
- reduction of specific growth rate compared to furanone-free control ([1]; 60 μg/mL): 10%
- reduction of extracellular AI-2 activity [2]: 31.0±5.1%
- growth on plate, GT599 [3]: −
- growth inhibition test, inhibitory concentration, GT599 [3]: 30 µg/mL
- growth on plate, CG [4]: −
- growth inhibition test, inhibitory concentration, CG [4]: 30 µg/mL
- growth on plate, CG572 [5]: −
- growth inhibition test, inhibitory concentration, CG572 [5]: 30 µg/mL
- growth on plate, TV57MAD277 [6]: −
- growth inhibition test, inhibitory concentration, TV57MAD277 [6]: 5 µg/mL

SMILES: CC1=C(Br)/C(=C/Br)OC1=O [BF8, 4-bromo-5Z-(bromomethylene)-3-methylfuran-2-one]
- inhibitory effect on planktonic growth ([1]; 30 μg/mL): did not exhibit significant inhibitory effects
- inhibitory effect on planktonic growth ([1]; 30 and 60 μg/mL (up to 60 μg/mL)): did not inhibit; also recorded: no apparent effect
- reduction of extracellular AI-2 activity [2]: 72.9±1.0%
- growth on plate, GT599 [3]: −
- growth inhibition test, inhibitory concentration, GT599 [3]: 5 µg/mL
- growth on plate, CG [4]: −
- growth inhibition test, inhibitory concentration, CG [4]: 5 µg/mL
- growth on plate, CG572 [5]: −
- growth inhibition test, inhibitory concentration, CG572 [5]: 30 µg/mL
- growth on plate, TV57MAD277 [6]: −
- growth inhibition test, inhibitory concentration, TV57MAD277 [6]: 30 µg/mL

SMILES: CC1=CC(=C(Br)Br)OC1=O [BF9, 5-(dibromomethylene)-3-methylfuran-2-one]
- reduction of specific growth rate compared to furanone-free control ([1]; 30 μg/mL): 29.3%
- reduction of specific growth rate compared to furanone-free control ([1]; 60 μg/mL): 42.7%
- reduction of extracellular AI-2 activity [2]: 42.2±0.3%
- growth on plate, GT599 [3]: −
- growth inhibition test, inhibitory concentration, GT599 [3]: 60 µg/mL
- growth on plate, CG [4]: −
- growth inhibition test, inhibitory concentration, CG [4]: 5 µg/mL
- growth on plate, CG572 [5]: −
- growth inhibition test, inhibitory concentration, CG572 [5]: 60 µg/mL
- growth on plate, TV57MAD277 [6]: −
- growth inhibition test, inhibitory concentration, TV57MAD277 [6]: 5 µg/mL

SMILES: CCCCC1=C(Br)/C(=C/Br)OC1=O [BF1, 4-bromo-5Z-(bromomethylene)-3-butylfuran-2-one]
- growth on plate, GT599 [3]: −
- growth inhibition test, inhibitory concentration, GT599 [3]: 30 µg/mL
- growth on plate, CG [4]: −
- growth inhibition test, inhibitory concentration, CG [4]: 30 µg/mL
- growth on plate, CG572 [5]: −
- growth inhibition test, inhibitory concentration, CG572 [5]: 30 µg/mL
- growth on plate, TV57MAD277 [6]: −
- growth inhibition test, inhibitory concentration, TV57MAD277 [6]: 5 µg/mL
